Our source for the IC50 values is US12331026B2 (NiKang Therapeutics, Inc., priority 2022, dated 2025).

The assay deals with T1, CDK2 (Homo sapiens, UniProt P24941).
T1 construct: endogenous in cells; host or cells: OVCAR3 cells
The assay is described as follows: Phospho-RB measurement in OVCAR3 cells (HTRF phospho-RB S807/811). The note with it: phosphorylation of RB protein at S807/811, HTRF, 24 h compound treatment, 0.3 to 10,000 nM, read-out: pRb (uM). Format: cell-based. The method, then: The ability of compounds of Formula (I) to inhibit CDK2 was determined in OVCAR3 cells. Phosphorylation of RB protein at S807/811 were measured using HTRF phospho-RB cellular kits (Cat #64RBS807PEG) from Cisbio.
On Day 1, OVCAR3 cells were seeded into 96-well tissue-culture treated plates at 20,000 cells/well in 200 μL and incubated overnight at 37° C. in CO2 atmosphere. On Day 2, the cells were treated with test compounds at concentrations from 0.3 to 10,000 nM using HP D300 digital dispenser. Twenty-four hours after compound treatment, cell culture media was removed by flicking the plate and tapping the plate against clean paper towel. Immediately 30 μL 1× lysis buffer was supplemented from the kit and the plate was incubated at room temperature on shaker for 30 min. After homogenization by pipetting up and down, 8 μL cell lysate from 96-well cell culture plate was transferred to 384-well small volume white detection plate. 2 μL premixed detection solution was added and the plate was covered with sealer. To prepare the detection solution, d2 conjugated-phospho-RB antibody and Eu-cryptate conjugated phosphor-RB antibody were diluted into detection buffer following manufacturer's instruction.
Detection plates were incubated for 4 h at room temperature and read on ClarioStar (BMG Labtech) in TR-FRET mode ([…]). The TR-FRET ratio (665 nM1/620 nM) was plotted against the compound concentration and normalized to DMSO controls. Half maximal inhibition concentration (IC50) values are calculated with a four-parameter logistic fit using GraphPad Prism (version 8; La Jolla, CA).

For `O=S1(=O)CC2(CC(Nc3nccc(-c4sc(N5CC6CCC(C5)N6c5ccccn5)nc4-c4cccc(NS(=O)(=O)c5c(F)cccc5F)c4F)n3)C2)C1` [Example 37, N-(3-(5-(2-((2,2-dioxido-2-thiaspiro[3.3]heptan-6-yl)amino)-pyrimidin-4-yl)-2-(8-(pyridin-2-yl)-3,8-diazabicyclo[3.2.1]octan-3-yl)thiazol-4-yl)-2-fluorophenyl)-2,6-difluorobenzenesulfonamide], the IC50 is 0.42 µM.

On to `O=S1(=O)CC2(CC(Nc3nccc(-c4sc(C56CCC(C5)C6)nc4-c4cccc(NS(=O)(=O)c5c(F)cccc5F)c4F)n3)C2)C1` [Example 20], for which the IC50 came out at 0.24 µM.

With `COc1cccc(F)c1S(=O)(=O)Nc1cccc(-c2nc(C34CC(C3)C4)sc2-c2ccnc(NC3CC4(C3)CS(=O)(=O)C4)n2)c1F` [Example 55, N-(3-(2-(bicyclo[1.1.1]pentan-1-yl)-5-(2-((2,2-dioxido-2-thiaspiro[3.3]heptan-6-yl)amino)pyrimidin-4-yl)thiazol-4-yl)-2-fluorophenyl)-2-fluoro-6-methoxybenzenesulfonamide], the IC50 came out at 1.35 µM.

In the case of `O=S1(=O)CC2(CC(Nc3nccc(-c4sc(C56CC(C5)C6)nc4-c4cccc(NS(=O)(=O)c5c(F)cccc5C(F)F)c4F)n3)C2)C1` [Example 47, N-(3-(2-(bicyclo[1.1.1]pentan-1-yl)-5-(2-((2,2-dioxido-2-thiaspiro[3.3]heptan-6-yl)amino)pyrimidin-4-yl)thiazol-4-yl)-2-fluorophenyl)-2-(difluoromethyl)-6-fluorobenzenesulfonamide], the IC50 turned out to be 0.05 µM.

For `CC1C2(CC(Nc3nccc(-c4sc(C56CC(C5)C6)nc4-c4cccc(NS(=O)(=O)c5c(F)cccc5F)c4F)n3)C2)CS1(=O)=O` (stereo not drawn) [Example 153, N-(3-(2-(bicyclo[1.1.1]pentan-1-yl)-5-(2-((1-methyl-2,2-dioxido-2-thiaspiro[3.3]heptan-6-yl)amino)pyrimidin-4-yl)thiazol-4-yl)-2-fluorophenyl)-2,6-difluorobenzenesulfonamide], the IC50 worked out at 0.06 µM.

In the case of `C[C@@H]1CN(C)C[C@@H](C)N1c1nc(-c2cccc(NS(=O)(=O)c3c(F)cccc3F)c2F)c(-c2ccnc(NC3CC4(C3)CS(=O)(=O)C4)n2)s1` [Example 60, N-(3-(5-(2-((2,2-dioxido-2-thiaspiro[3.3]heptan-6-yl)amino)-pyrimidin-4-yl)-2-((2R,6R)-2,4,6-trimethylpiperazin-1-yl)thiazol-4-yl)-2-fluorophenyl)-2,6-difluorobenzenesulfonamide], the IC50 is 0.9 µM.

With `O=S1(=O)C[C@@H]2[C@H](C1)[C@@H]2Nc1nccc(-c2sc(N3C4CCC3CN(C3CC(F)(F)C3)C4)nc2-c2cccc(NS(=O)(=O)c3c(F)cccc3C(F)(F)F)c2F)n1` [Example 108, N-(3-(2-(3-(3,3-difluorocyclobutyl)-3,8-diazabicyclo[3.2.1]octan-8-yl)-5-(2-(((1R,5S,6s)-3,3-dioxido-3-thiabicyclo[3.1.0]hexan-6-yl)amino)pyrimidin-4-yl)thiazol-4-yl)-2-fluorophenyl)-2-fluoro-6-(trifluoromethyl)benzenesulfonamide], the IC50 came out at 0.1 µM.

`O=S1(=O)CC2C(C1)C2Nc1nccc(-c2sc(C34CC(C3)C4)nc2-c2cccc(NS(=O)(=O)c3c(F)cccc3F)c2F)n1` (stereo not drawn) [Example 93, N-(3-(2-(bicyclo[1.1.1]pentan-1-yl)-5-(2-((3,3-dioxido-3-thiabicyclo[3.1.0]hexan-6-yl)amino)pyrimidin-4-yl)thiazol-4-yl)-2-fluorophenyl)-2,6-difluorobenzenesulfonamide]: the IC50 amounted to 0.04 µM.

With `O=S1(=O)CC2(CC(Nc3nccc(-c4sc(C56CCC(CC5)C6)nc4-c4cccc(NS(=O)(=O)c5c(F)cccc5F)c4F)n3)C2)C1` [Example 32, N-(3-(2-(bicyclo[2.2.1]heptan-1-yl)-5-(2-((2,2-dioxido-2-thiaspiro[3.3]heptan-6-yl)amino)pyrimidin-4-yl)thiazol-4-yl)-2-fluorophenyl)-2,6-difluorobenzenesulfonamide], the IC50 was 0.08 µM.
